In article PMC10049026, “In Silico Binding of 2-Aminocyclobutanones to SARS-CoV-2 Nsp13 Helicase and Demonstration of Antiviral Activity” (International Journal of Molecular Sciences, 2023):
Like-named read-outs stand apart in the source and are kept apart here.

Tests used:
[1] = system: Delta Variant hCoV-19/USA/MD-HP05285/2021 (Lineage B.1.617.2); experiment: microbe, parasite or virus in culture; format: cell-based, SARS-CoV-2; conditions: for IC50: Severe acute respiratory syndrome coronavirus 2
[2] = system: Omicron Variant hCoV-19/USA/MD-HP20874/2021 (Lineage B.1.1.529); experiment: microbe, parasite or virus in culture; format: cell-based, SARS-CoV-2; conditions: Severe acute respiratory syndrome coronavirus 2

With `Cc1ccc(S(=O)(=O)N[C@@H](Cc2c[nH]c3ccccc23)C(=O)NC2CCC2=O)cc1` (stereo partly drawn) [Compound 4, (2S)-3-(1H-Indol-3-yl)-2-((4-methylphenyl)sulfonamido)-N-(2-oxocyclobutyl)propanamide] the “difference in IC50, variants vs wild-type” value [1] was 10 to 20 fold, the IC50 ([1]; read-out: IC50, Delta VOC (Figure 5)) was 0.943 ± 0.526 µM and the IC50 ([1]; read-out: IC50 Values For inhibition of SARS-CoV-2 Mediated Cell Death, Delta) was 0.22 µM. It also gave an IC50 ([2]; read-out: IC50, Omicron VOC (Figure 5)) of 2.59 ± 1.28 µM and an IC50 ([2]; read-out: IC50 Values For inhibition of SARS-CoV-2 Mediated Cell Death, Omicron) of 1.58 µM.
